Results: ChEMBL document CHEMBL2176882 (Bioorg Med Chem Lett, 2012)
Values after ≈ are worked out from the molar mass of the structure shown. Active and inactive are the calls of the source. No cut-off for these calls is given here.

Columns and labels:
[1] = molecular target: Bromodomain-containing protein 2 (Homo sapiens, UniProt P25440); assay: Binding affinity to human BRD2 assessed as inhibition of Alexa Fluor 488 binding after 60 mins by fluorescence anisotropic analysis
[2] = molecular target: Bromodomain-containing protein 4 (Homo sapiens, UniProt O60885); assay: Binding affinity to BRD4 assessed as inhibition of Alexa Fluor 488 binding after 60 mins by fluorescence anisotropic analysis
[3] = molecular target: Bromodomain-containing protein 3 (Homo sapiens, UniProt Q15059); assay: Binding affinity to BRD3 assessed as inhibition of Alexa Fluor 488 binding after 60 mins by fluorescence anisotropic analysis
HepG2 = assay: Inhibition of BET in human HepG2 cells assessed as upregulation of ApoA1 after 18 hrs by luciferase reporter gene assay; assay type: cell-based
[4] = Fraction unbound in mouse blood after 4 hrs by rapid equilibrium dialysis; assay type: ADME, tissue-based
[5] = Oral bioavailability in dog; assay type: ADME, organism-based, Canis lupus familiaris; conditions: in vivo
Escherichia coli [6] = assay: Mutagenicity against Escherichia coli WP2uvrA by AMES test in absence of S9 fraction; assay type: toxicity, organism-based
Mus musculus [7] = assay: Antiinflammatory activity in mouse endotoxaemia model assessed as protection against LPS-induced mortality at 10 mg/kg, iv administered 1 hr prior to LPS challenge measured up to 4 days; assay type: functional, organism-based; set-up: dose 10 mg/kg
Mus musculus [8] = assay: Antiinflammatory activity in mouse endotoxaemia model assessed as inhibition of LPS-induced IL6 production at 10 mg/kg, iv administered 1 hr prior to LPS challenge measured after 90 mins by ELISA relative to vehicle-treated control; assay type: functional, organism-based; set-up: dose 10 mg/kg
Mus musculus [9] = assay: Antiinflammatory activity in mouse endotoxaemia model assessed as inhibition of LPS-induced TNFalpha production at 0.1 to 30 mg/kg, iv administered 1 hr prior to LPS-challenge measured after 90 mins by ELISA relative to vehicle-treated control; assay type: functional, organism-based
[10] = Fraction unbound in rat blood after 4 hrs by rapid equilibrium dialysis; assay type: ADME, tissue-based
Blood [11] = assay: Antiinflammatory activity in human whole blood assessed as inhibition of LPS-induced TNFalpha production; assay type: functional, tissue-based
PBMC [12] = assay: Cytotoxicity against human PBMC assessed as decrease in ATP level; assay type: cell-based
Blood [13] = assay: Antiinflammatory activity in human whole blood assessed as inhibition of LPS-induced IL12p70 production; assay type: functional, tissue-based
[14] = Oral bioavailability in mini pig; assay type: ADME, organism-based, Sus scrofa; conditions: in vivo
Salmonella typhimurium [15] = assay: Mutagenicity against Salmonella typhimurium TA100 by AMES test in presence of S9 fraction; assay type: toxicity, organism-based; conditions: salmonella enterica subsp. enterica serovar typhimurium
Mus musculus [16] = assay: Antiinflammatory activity in mouse endotoxaemia model assessed as protection against LPS-induced mortality at 10 mg/kg, iv administered 90 mins post LPS challenge measured up to 4 days; assay type: functional, organism-based; set-up: dose 10 mg/kg
[17] = Blood clearance in mini pig; assay type: ADME, organism-based, Sus scrofa
[18] = Half life in dog; assay type: ADME, organism-based, Canis lupus familiaris; conditions: in vivo
[19] = Volume of distribution in dog; assay type: ADME, organism-based, Canis lupus familiaris; conditions: in vivo
[20] = Volume of distribution in mouse; assay type: ADME, organism-based; conditions: in vivo
Escherichia coli [21] = assay: Mutagenicity against Escherichia coli WP2uvrA by AMES test in presence of S9 fraction; assay type: toxicity, organism-based
[22] = molecular target: 3',5'-cyclic-AMP phosphodiesterase 4B (Homo sapiens, UniProt Q07343); assay: Inhibition of PDE4B
Salmonella typhimurium [23] = assay: Mutagenicity against Salmonella typhimurium TA1535 by AMES test in presence of S9 fraction; assay type: toxicity, organism-based; conditions: salmonella enterica subsp. enterica serovar typhimurium
[24] = Half life in mini pig; assay type: ADME, organism-based, Sus scrofa; conditions: in vivo
Blood [25] = assay: Antiinflammatory activity in human whole blood assessed as inhibition of LPS-induced IL10 production; assay type: functional, tissue-based
Blood [26] = assay: Antiinflammatory activity in human whole blood assessed as inhibition of LPS-induced IL8 production; assay type: functional, tissue-based
[27] = Fraction unbound in human blood after 4 hrs by rapid equilibrium dialysis; assay type: ADME, tissue-based
[28] = Volume of distribution in mini pig; assay type: ADME, organism-based, Sus scrofa; conditions: in vivo
Salmonella typhimurium [29] = assay: Mutagenicity against Salmonella typhimurium TA1537 by AMES test in presence of S9 fraction; assay type: toxicity, organism-based; conditions: salmonella enterica subsp. enterica serovar typhimurium
Salmonella typhimurium [30] = assay: Mutagenicity against Salmonella typhimurium TA1537 by AMES test in absence of S9 fraction; assay type: toxicity, organism-based; conditions: salmonella enterica subsp. enterica serovar typhimurium
[31] = Blood clearance in dog; assay type: ADME, organism-based, Canis lupus familiaris
Salmonella typhimurium [32] = assay: Mutagenicity against Salmonella typhimurium TA1535 by AMES test in absence of S9 fraction; assay type: toxicity, organism-based; conditions: salmonella enterica subsp. enterica serovar typhimurium
Salmonella typhimurium [33] = assay: Mutagenicity against Salmonella typhimurium TA98 by AMES test in presence of S9 fraction; assay type: toxicity, organism-based; conditions: salmonella enterica subsp. enterica serovar typhimurium
PBMC [34] = assay: cells; conditions: Homo sapiens, read-out: pIC50 (converted)
Description: Antiinflammatory activity in human PBMC assessed as inhibition of LPS-induced IL6 production

Salmonella typhimurium [35] = assay: Mutagenicity against Salmonella typhimurium TA98 by AMES test in absence of S9 fraction; assay type: toxicity, organism-based; conditions: salmonella enterica subsp. enterica serovar typhimurium
Salmonella typhimurium [36] = assay: Mutagenicity against Salmonella typhimurium TA100 by AMES test in absence of S9 fraction; assay type: toxicity, organism-based; conditions: salmonella enterica subsp. enterica serovar typhimurium
[37] = Fraction unbound in dog blood after 4 hrs by rapid equilibrium dialysis; assay type: ADME, tissue-based, Canis lupus familiaris
[38] = Blood clearance in mouse; assay type: ADME, organism-based
Blood [39] = assay: Antiinflammatory activity in human whole blood assessed as inhibition of LPS-induced IFNgamma production; assay type: functional, tissue-based
Albumin = Albumin (Homo sapiens, UniProt P02768); assay: Binding affinity to human serum albumin; assay type: ADME; conditions: read-out: PB (converted)
[40] = Volume of distribution in rat; assay type: ADME, organism-based; conditions: in vivo
Cytochrome P450 2C19 = Cytochrome P450 2C19 (Homo sapiens, UniProt P33261); assay: Inhibition of CYP2C19; assay type: ADME
[41] = Aqueous solubility of the compound at pH 5; assay type: physicochemical; conditions: aqueous medium

Chain of Bromodomain-containing protein 2 (P25440 whole entry): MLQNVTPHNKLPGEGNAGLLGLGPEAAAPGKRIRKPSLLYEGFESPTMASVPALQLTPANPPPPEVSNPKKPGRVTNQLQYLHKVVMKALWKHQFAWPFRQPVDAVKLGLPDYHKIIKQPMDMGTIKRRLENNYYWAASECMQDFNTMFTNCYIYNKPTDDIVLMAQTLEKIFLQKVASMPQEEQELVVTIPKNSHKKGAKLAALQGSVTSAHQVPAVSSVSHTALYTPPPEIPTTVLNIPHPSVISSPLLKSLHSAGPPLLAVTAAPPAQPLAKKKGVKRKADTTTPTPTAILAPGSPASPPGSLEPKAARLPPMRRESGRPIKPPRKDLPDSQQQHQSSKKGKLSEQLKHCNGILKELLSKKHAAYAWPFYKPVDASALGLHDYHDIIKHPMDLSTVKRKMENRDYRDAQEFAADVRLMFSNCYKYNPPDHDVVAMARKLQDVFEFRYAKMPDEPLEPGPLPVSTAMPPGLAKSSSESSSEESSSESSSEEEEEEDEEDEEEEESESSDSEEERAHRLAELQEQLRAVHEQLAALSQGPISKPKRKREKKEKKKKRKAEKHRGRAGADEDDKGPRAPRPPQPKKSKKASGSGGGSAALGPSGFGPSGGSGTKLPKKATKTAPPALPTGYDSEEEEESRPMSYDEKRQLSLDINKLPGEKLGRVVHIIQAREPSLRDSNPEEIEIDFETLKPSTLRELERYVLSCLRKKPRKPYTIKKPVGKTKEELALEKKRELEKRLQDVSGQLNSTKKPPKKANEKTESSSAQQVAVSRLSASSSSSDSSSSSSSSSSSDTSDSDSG
Chain of Bromodomain-containing protein 3 (Q15059 whole entry): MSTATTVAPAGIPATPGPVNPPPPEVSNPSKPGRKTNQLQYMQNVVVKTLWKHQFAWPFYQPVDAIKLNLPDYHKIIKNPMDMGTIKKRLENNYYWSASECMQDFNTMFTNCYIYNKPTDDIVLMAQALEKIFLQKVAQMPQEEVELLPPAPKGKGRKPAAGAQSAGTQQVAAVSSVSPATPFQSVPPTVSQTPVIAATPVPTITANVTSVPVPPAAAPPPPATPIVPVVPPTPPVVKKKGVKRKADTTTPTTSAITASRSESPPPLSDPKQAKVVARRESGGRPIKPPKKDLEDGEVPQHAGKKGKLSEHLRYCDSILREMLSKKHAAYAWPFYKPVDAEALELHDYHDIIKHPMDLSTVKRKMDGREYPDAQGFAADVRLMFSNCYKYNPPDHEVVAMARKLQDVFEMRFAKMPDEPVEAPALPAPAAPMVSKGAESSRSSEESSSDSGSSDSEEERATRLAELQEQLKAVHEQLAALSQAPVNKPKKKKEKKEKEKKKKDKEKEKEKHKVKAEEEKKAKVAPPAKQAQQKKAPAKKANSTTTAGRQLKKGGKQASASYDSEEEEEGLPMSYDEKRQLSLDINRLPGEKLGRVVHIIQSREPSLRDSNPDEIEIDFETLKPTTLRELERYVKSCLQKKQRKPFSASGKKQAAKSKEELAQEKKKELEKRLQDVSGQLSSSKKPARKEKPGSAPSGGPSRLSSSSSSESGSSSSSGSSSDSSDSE
Chain of 3',5'-cyclic-AMP phosphodiesterase 4B (Q07343 whole entry): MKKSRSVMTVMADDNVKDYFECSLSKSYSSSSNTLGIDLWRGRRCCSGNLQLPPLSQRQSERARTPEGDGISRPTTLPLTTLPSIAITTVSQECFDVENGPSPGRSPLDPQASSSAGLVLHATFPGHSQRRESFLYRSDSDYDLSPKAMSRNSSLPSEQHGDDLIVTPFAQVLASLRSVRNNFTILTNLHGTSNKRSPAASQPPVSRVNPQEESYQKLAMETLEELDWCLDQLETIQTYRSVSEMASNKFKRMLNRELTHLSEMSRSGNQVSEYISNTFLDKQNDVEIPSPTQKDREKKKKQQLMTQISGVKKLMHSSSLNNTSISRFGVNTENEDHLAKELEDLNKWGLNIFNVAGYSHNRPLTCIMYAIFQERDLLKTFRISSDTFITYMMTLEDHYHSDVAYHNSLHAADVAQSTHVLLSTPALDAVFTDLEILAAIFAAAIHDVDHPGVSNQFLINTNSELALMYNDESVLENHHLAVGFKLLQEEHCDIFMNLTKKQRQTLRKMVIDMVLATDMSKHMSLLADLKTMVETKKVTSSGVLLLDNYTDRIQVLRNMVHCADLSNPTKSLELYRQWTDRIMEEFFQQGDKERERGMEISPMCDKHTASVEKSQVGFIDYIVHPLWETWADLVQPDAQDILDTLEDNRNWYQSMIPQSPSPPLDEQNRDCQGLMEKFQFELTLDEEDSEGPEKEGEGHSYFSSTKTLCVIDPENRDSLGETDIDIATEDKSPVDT
Chain of Albumin (P02768 whole entry): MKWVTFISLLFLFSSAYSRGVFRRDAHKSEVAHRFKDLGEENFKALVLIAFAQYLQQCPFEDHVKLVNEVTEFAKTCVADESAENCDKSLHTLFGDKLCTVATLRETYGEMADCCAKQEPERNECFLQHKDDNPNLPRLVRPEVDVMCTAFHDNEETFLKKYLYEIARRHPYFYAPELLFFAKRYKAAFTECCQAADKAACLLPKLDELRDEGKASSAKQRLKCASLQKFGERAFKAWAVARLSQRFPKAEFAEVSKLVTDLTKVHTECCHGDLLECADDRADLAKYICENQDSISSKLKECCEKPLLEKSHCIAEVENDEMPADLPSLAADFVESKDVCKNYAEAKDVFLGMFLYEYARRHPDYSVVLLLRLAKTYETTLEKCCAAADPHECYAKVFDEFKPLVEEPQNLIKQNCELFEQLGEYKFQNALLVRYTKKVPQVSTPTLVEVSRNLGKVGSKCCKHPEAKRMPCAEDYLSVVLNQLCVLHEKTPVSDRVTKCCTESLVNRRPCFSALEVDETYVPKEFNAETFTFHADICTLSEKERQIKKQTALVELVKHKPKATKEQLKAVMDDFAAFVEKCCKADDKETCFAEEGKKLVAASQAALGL
Chain of Cytochrome P450 2C19 (P33261 whole entry): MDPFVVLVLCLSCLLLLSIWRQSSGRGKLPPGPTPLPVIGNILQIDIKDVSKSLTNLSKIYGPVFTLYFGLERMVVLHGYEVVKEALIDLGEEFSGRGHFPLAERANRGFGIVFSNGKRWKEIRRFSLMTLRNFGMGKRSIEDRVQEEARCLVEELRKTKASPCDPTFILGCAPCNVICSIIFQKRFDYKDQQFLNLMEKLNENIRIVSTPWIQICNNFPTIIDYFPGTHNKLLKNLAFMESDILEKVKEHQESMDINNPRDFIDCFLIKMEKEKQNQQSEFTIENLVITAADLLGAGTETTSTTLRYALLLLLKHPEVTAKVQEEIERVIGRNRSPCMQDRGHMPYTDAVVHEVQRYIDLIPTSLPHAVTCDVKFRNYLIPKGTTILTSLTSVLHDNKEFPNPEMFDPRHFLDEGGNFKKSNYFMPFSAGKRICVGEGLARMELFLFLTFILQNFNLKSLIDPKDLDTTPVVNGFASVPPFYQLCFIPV

Cc1noc(C)c1-c1ccc2c(Nc3ccccc3F)c(C(=O)O)cnc2c1
IC50 [1]: 1580 nM
IC50 [2]: 1260 nM
IC50 [3]: 631 nM
pEC170 (HepG2): 5.7

COc1cc2c(cc1-c1c(C)noc1C)ncc1[nH]c(=O)n([C@H](C)c3ccccn3)c12
fraction unbound at 4 h [4]: 0.03
bioavailability [5]: 16%
Activity (Escherichia coli [6]): Non-toxic
Activity (Mus musculus [7]): Active
inhibition (Mus musculus [8]): Active
inhibition (Mus musculus [9]): inactive
fraction unbound at 4 h [10]: 0.06
Activity (Blood [11]): Active
Activity (PBMC [12]): Non-toxic
Activity (Blood [13]): inactive
bioavailability [14]: 65%
Activity (Salmonella typhimurium [15]): Non-toxic
Activity (Mus musculus [16]): Active
clearance [17]: 15 mL/min/kg
half-life [18]: 1.2 h
Vd [19]: 3 L/kg
Vd [20]: 1.2 L/kg
Activity (Escherichia coli [21]): Non-toxic
IC50 [22]: 3980 nM
Activity (Salmonella typhimurium [23]): Non-toxic
half-life [24]: 1.2 h
Activity (Blood [25]): Active
Activity (Blood [26]): inactive
fraction unbound at 4 h [27]: 0.05
Vd [28]: 1.6 L/kg
Activity (Salmonella typhimurium [29]): Non-toxic
Activity (Salmonella typhimurium [30]): Non-toxic
clearance [31]: 38 mL/min/kg
Activity (Salmonella typhimurium [32]): Non-toxic
Activity (Salmonella typhimurium [33]): Non-toxic
IC50 (PBMC [34]): 200 nM
Activity (Salmonella typhimurium [35]): Non-toxic
Activity (Salmonella typhimurium [36]): Non-toxic
pEC170 (HepG2): 7
fraction unbound at 4 h [37]: 0.09
clearance [38]: 8 mL/min/kg
Activity (Blood [39]): inactive

COc1cc2c(cc1-c1c(C)noc1C)ncc1[nH]c(=O)n(Cc3ccccc3)c12
IC50 [1]: 501 nM
Activity (Blood [11]): Active
Activity (PBMC [12]): Non-toxic
Activity (Blood [13]): inactive
IC50 [2]: 398 nM
Activity (Blood [25]): Active
Activity (Blood [26]): inactive
IC50 [3]: 251 nM
IC50 (PBMC [34]): 100 nM
pEC170 (HepG2): 7.2
Activity (Blood [39]): inactive

COc1cc2c(cc1-c1c(C)noc1C)ncc1[nH]c(=O)n(-c3ccccc3C(C)(C)C)c12
IC50 [1]: 501 nM
Activity (Blood [11]): Active
Activity (PBMC [12]): Non-toxic
Activity (Blood [13]): inactive
IC50 [2]: 501 nM
Activity (Blood [25]): Active
Activity (Blood [26]): inactive
IC50 [3]: 398 nM
pEC170 (HepG2): 7.3
fraction unbound (Albumin): 0.023
Activity (Blood [39]): inactive

COc1cc2c(Nc3cccc4cccnc34)c(C(N)=O)cnc2cc1-c1c(C)noc1C
fraction unbound at 4 h [4]: 0.015
bioavailability [5]: 52%
Activity (Escherichia coli [6]): Toxic
IC50 [1]: 1000 nM
fraction unbound at 4 h [10]: 0.025
Activity (Blood [11]): Active
Activity (PBMC [12]): Non-toxic
Activity (Blood [13]): inactive
Vd [40]: 4.1 L/kg
IC50 [2]: 794 nM
IC50 (Cytochrome P450 2C19): 5500 nM
half-life [18]: 1.3 h
Vd [19]: 1.3 L/kg
Activity (Escherichia coli [21]): Toxic
IC50 [22]: 50.1 nM
Activity (Blood [25]): Active
Activity (Blood [26]): inactive
fraction unbound at 4 h [27]: 0.04
Activity (Salmonella typhimurium [29]): Toxic
Activity (Salmonella typhimurium [30]): Toxic
clearance [31]: 12 mL/min/kg
IC50 [3]: 501 nM
IC50 (PBMC [34]): 100 nM
pEC170 (HepG2): 6.7
fraction unbound at 4 h [37]: 0.01
Activity (Blood [39]): inactive

COc1cc2c(cc1-c1c(C)noc1C)ncc1[nH]c(=O)n(Cc3ccccn3)c12
IC50 [1]: 1580 nM
Activity (Blood [11]): Active
Activity (PBMC [12]): Non-toxic
Activity (Blood [13]): inactive
IC50 [2]: 1000 nM
Activity (Blood [25]): Active
Activity (Blood [26]): inactive
IC50 [3]: 501 nM
Activity (Blood [39]): inactive

COc1cc2c(Nc3ccccc3F)c(C(N)=O)cnc2cc1-c1c(C)noc1C
IC50 [1]: 501 nM
solubility [41]: 13 µg/mL (≈ 32 µM)
Activity (Blood [11]): Active
Activity (PBMC [12]): Non-toxic
Activity (Blood [13]): inactive
IC50 [2]: 631 nM
Activity (Blood [25]): Active
Activity (Blood [26]): inactive
IC50 [3]: 316 nM
IC50 (PBMC [34]): 501 nM
pEC170 (HepG2): 6.5
Activity (Blood [39]): inactive
